In brackets after ≈: the same amount, converted by molar mass. Where two headings read alike, the source gives them in different places.
Legend:
Saccharomyces cerevisiae [1] = assay: checkerboard drug interaction (FICI, MICc);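 for all read-outs here: simplified diagonal checkerboard screen pairing antifungals with FPPS inhibitors, FICI calculated under the Loewe additivity model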; assay type: cell-based; set-up: INH MICc / INH MICc (ITR:INH) / INH MICc (KET:INH) / INH MICc (FLC:INH): unit not given beside the values; conditions: S. cerevisiae; for INH FD (MIC-MICc fold decrease): fold decrease of inhibitor MIC
eight fungal species [2] = assay: MIC/MFC summary across the eight fungal species of Table 1; assay type: cell-based
Protocol: The antifungal activity of these compounds was evaluated according to CLSI guidelines ([16]).

HEK-293T cells = assay: MTT reduction cytotoxicity assay; assay type: cell-based; conditions: Homo sapiens, HEK-293T, 72 h, MTT, 72 h
Trichophyton rubrum = assay: checkerboard drug interaction (FICI, MICc);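 note: simplified diagonal checkerboard screen pairing azole antifungals with FPPS inhibitors, FICI calculated under the Loewe additivity model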; assay type: cell-based; conditions: T. rubrum
Protocol: (§1) Drug interactions between antifungals and FPPS inhibitors were investigated using a simplified checkerboard diagonal screening method ([45]). […] FICIs were determined according to the Loewe additivity model ([17]).

Candida glabrata = assay: MIC/MFC broth microdilution (CLSI); conditions: Nakaseomyces glabratus, CBS138;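 note: broth microdilution following CLSI M27-Ed4, MFC taken as the lowest drug level yielding no growth once MIC wells were subcultured on SDA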
Protocol: (§2) Antifungal susceptibility was determined by broth microdilution according to the CLSI guidelines described in M27-Ed4 ([16]). […] MFC was determined by back-plating drug-treated cultures from MIC broths onto SDA plates. The MFC was defined as the lowest concentration from which no colonies could be cultured.

[3] = test system: Cryptococcus deuterogattii; assay: MIC/MFC broth microdilution (CLSI); conditions: Cryptococcus deuterogattii;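 note: broth microdilution per CLSI M27-Ed4. MFC is the lowest concentration yielding no colonies when MIC broths are subcultured onto SDA plates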
Protocol: as §2

eight fungal species [4] = assay: checkerboard interaction with azoles, summary across the eight species; assay type: cell-based; conditions: geometric mean MIC in combination with azoles
Source text: Synergy between lipophilic FPPS inhibitors and azole antifungals was investigated by determining the fractional inhibitory concentration index (FICI) (Fig. 2; Table S1 Fig. S1) ([17]). […]. Derivatives PLA9 and 11, and PDA9, 11, and 12 antagonized azoles in C. albicans, C. neoformans, and C. deuterogattii, yet were largely synergistic in C. glabrata and S. cerevisiae. […].

Cryptococcus neoformans [5] = assay: MIC/MFC broth microdilution (CLSI); conditions: Cryptococcus neoformans;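 note: susceptibility testing followed the CLSI M27-Ed4 broth microdilution document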
Protocol: as §2

Candida albicans [6] = assay: MIC/MFC broth microdilution (CLSI); assay type: cell-based; conditions: Candida albicans SC5314
Protocol: as §2

Cryptococcus neoformans [7] = assay: checkerboard drug interaction (FICI, MICc);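 for all read-outs here: antifungal plus FPPS inhibitor pairs tested against Cryptococcus neoformans by simplified diagonal checkerboard screening, FICI computed under the Loewe additivity model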; assay type: cell-based; conditions: C. neoformans; for INH FD (MIC-MICc fold decrease): fold decrease of inhibitor MIC
Protocol: as §1

Aspergillus flavus = assay: MIC/MFC broth microdilution (CLSI); conditions: ATCC204304
Protocol: as §2

Saccharomyces cerevisiae [8] = assay: MIC/MFC broth microdilution (CLSI); assay type: cell-based; conditions: Saccharomyces cerevisiae S288c
Protocol: as §2

Candida albicans [9] = assay: checkerboard drug interaction (FICI, MICc);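 note: antifungal plus FPPS inhibitor combinations on Candida albicans tested by a simplified diagonal checkerboard screen, with FICI calculated under the Loewe additivity model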; assay type: cell-based; conditions: C. albicans, FLC:INH combination
Protocol: as §1

[10] = FLC:INH combination, MIC of the inhibitor in combination with FLC
[11] = FLC:INH combination, fold decrease of FLC MIC
[12] = ITR:INH combination, MIC of the inhibitor in combination with ITR
[13] = ITR:INH combination, fold decrease of ITR MIC
[14] = KET:INH combination, MIC of the inhibitor in combination with KET
[15] = KET:INH combination, fold decrease of KET MIC

CCCCCCCCCCN1CCC[C@H]1C(=O)N[C@@H](CC(=O)OC)C(=O)OC [dmPLA10]
FICI (Saccharomyces cerevisiae [1]; FLC:INH combination): ≥4
FLC MICc (Saccharomyces cerevisiae [1]; FLC:INH combination, MIC of FLC in combination with the inhibitor): 8
INH MICc (Saccharomyces cerevisiae [1]; [10]): 16
FLC FD (MIC-MICc fold decrease) (Saccharomyces cerevisiae [1]; [11]): -2
INH FD (MIC-MICc fold decrease) (Saccharomyces cerevisiae [1]; FLC:INH combination): -2
FICI (Saccharomyces cerevisiae [1]; ITR:INH combination): 1.13
ITR MICc (Saccharomyces cerevisiae [1]; ITR:INH combination, MIC of ITR in combination with the inhibitor): 0.25
INH MICc (Saccharomyces cerevisiae [1]; [12]): 1
ITR FD (MIC-MICc fold decrease) (Saccharomyces cerevisiae [1]; [13]): 1
INH FD (MIC-MICc fold decrease) (Saccharomyces cerevisiae [1]; ITR:INH combination): 8
FICI (Saccharomyces cerevisiae [1]; KET:INH combination): 1.13
KET MICc (Saccharomyces cerevisiae [1]; KET:INH combination, MIC of KET in combination with the inhibitor): 2
INH MICc (Saccharomyces cerevisiae [1]; [14]): 1
KET FD (MIC-MICc fold decrease) (Saccharomyces cerevisiae [1]; [15]): 1
INH FD (MIC-MICc fold decrease) (Saccharomyces cerevisiae [1]; KET:INH combination): 8
Geometric mean MFC (eight fungal species [2]; across eight species): 64.0 µg/mL
MFC (eight fungal species [2]; across eight species, read-out: Geometric mean MFC): 64 µg/mL (≈ 161 µM)
MIC (eight fungal species [2]; geometric mean across eight species, read-out: GM fungal MIC): 20.7 µg/mL (≈ 51.9 µM)
MIC (eight fungal species [2]; read-out: Geometric mean MIC): 20.7 µg/mL (≈ 51.9 µM)
IC50 (HEK-293T cells; HEK-293T cells, read-out: IC50): 1.57 µg/mL (≈ 3.95 µM)
IC50 (HEK-293T cells; read-out: HEK IC50): 1.57 µg/mL (≈ 3.95 µM)
FICI (FLC:INH) (Trichophyton rubrum; Fractional Inhibitory Concentration Index, fluconazole + inhibitor): ≥4
FICI (ITR:INH) (Trichophyton rubrum; Fractional Inhibitory Concentration Index, itraconazole + inhibitor): 1.03
FICI (KET:INH) (Trichophyton rubrum; Fractional Inhibitory Concentration Index, ketoconazole + inhibitor): 1.06
INH MICc (FLC:INH) (Trichophyton rubrum; MIC of the inhibitor in combination with fluconazole): 64
INH MICc (ITR:INH) (Trichophyton rubrum; MIC of the inhibitor in combination with itraconazole): 8
INH MICc (KET:INH) (Trichophyton rubrum; MIC of the inhibitor in combination with ketoconazole): 8
FLC FD (FLC:INH) (Trichophyton rubrum; MIC-MICc fold decrease of fluconazole, negative = increase): 2
ITR FD (ITR:INH) (Trichophyton rubrum; MIC-MICc fold decrease of itraconazole, negative = increase): 32
KET FD (KET:INH) (Trichophyton rubrum; MIC-MICc fold decrease of ketoconazole, negative = increase): 16
INH FD (FLC:INH) (Trichophyton rubrum; MIC-MICc fold decrease of the inhibitor, with fluconazole): < -4
INH FD (ITR:INH) (Trichophyton rubrum; MIC-MICc fold decrease of the inhibitor, with itraconazole): 1
INH FD (KET:INH) (Trichophyton rubrum; MIC-MICc fold decrease of the inhibitor, with ketoconazole): 1
MFC (Candida glabrata): 32 µg/mL (≈ 80.3 µM)
MIC (Candida glabrata): 32 µg/mL (≈ 80.3 µM)
MFC [3]: 128 µg/mL (≈ 321 µM)
MIC [3]: 16 µg/mL (≈ 40.1 µM)
GM fungal MICc (eight fungal species [4]): 8
MFC (Cryptococcus neoformans [5]): 64 µg/mL (≈ 161 µM)
MIC (Cryptococcus neoformans [5]): 16 µg/mL (≈ 40.1 µM)
MFC (Candida albicans [6]): 32 µg/mL (≈ 80.3 µM)
MIC (Candida albicans [6]): 32 µg/mL (≈ 80.3 µM)
FICI (Cryptococcus neoformans [7]; FLC:INH combination): 0.75
INH MICc (Cryptococcus neoformans [7]; [10]): 8
FLC FD (MIC-MICc fold decrease) (Cryptococcus neoformans [7]; [11]): 4
INH FD (MIC-MICc fold decrease) (Cryptococcus neoformans [7]; FLC:INH combination): 2
FICI (Cryptococcus neoformans [7]; ITR:INH combination): 0.75
INH MICc (Cryptococcus neoformans [7]; [12]): 8
ITR FD (MIC-MICc fold decrease) (Cryptococcus neoformans [7]; [13]): 4
INH FD (MIC-MICc fold decrease) (Cryptococcus neoformans [7]; ITR:INH combination): 2
FICI (Cryptococcus neoformans [7]; KET:INH combination): 0.75
INH MICc (Cryptococcus neoformans [7]; [14]): 8
KET FD (MIC-MICc fold decrease) (Cryptococcus neoformans [7]; [15]): 4
INH FD (MIC-MICc fold decrease) (Cryptococcus neoformans [7]; KET:INH combination): 2
MFC (Aspergillus flavus): 64 µg/mL (≈ 161 µM)
MIC (Aspergillus flavus): 64 µg/mL (≈ 161 µM)
MFC (Saccharomyces cerevisiae [8]): 16 µg/mL (≈ 40.1 µM)
MIC (Saccharomyces cerevisiae [8]): 8 µg/mL (≈ 20.1 µM)
FICI (Candida albicans [9]): 1.5
INH MICc (Candida albicans [9]; MIC of the inhibitor in combination with FLC): 8
FLC FD (MIC-MICc fold decrease) (Candida albicans [9]; fold decrease of FLC MIC): 1
INH FD (MIC-MICc fold decrease) (Candida albicans [9]; fold decrease of inhibitor MIC): 2

Reference: paper PMC12892976, “Alkylation-based optimization of antifungal FPPS inhibitors yields a potent, broad-spectrum lipophilic zoledronate derivative” (mBio, 2025)
